# Test results: patent US6867207B2, “IL-5 inhibiting 6-azauracil derivatives” (Janssen Pharmaceutica N.V., priority 1997, dated 2005)
# System: IL-5 production
# Test: In vitro inhibition of IL-5 production in human blood (phytohemagglutinin-stimulated whole blood, ELISA);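 also: values marked with an asterisk were tested at 10 µM and unmarked values at 1 µM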
# Type: cell-based
# Settings: test dose 1×10^−6 M, 48 hours
# Procedure: In Vitro Inhibition of IL-5 Production in Human Blood
# Human Whole Blood Stimulation
# Peripheral blood from healthy male donors was drawn into heparinized syringes (12.5 U heparin/ml). Blood samples were three-fold diluted in RMPI 1640 medium (Life Technologies, Belgium) supplemented with 2 mM L-glutamine, 100 U/ml penicillin and 100 μg/ml streptomycin, and 300 μl fractions were distributed in 24-well multidisc plates. Blood samples were preincubated (60 minutes at 37° C.) in a humidified 6% CO2-atmosphere with 100 μl of drug solvent (final concentration 0.02% dimethylsulfoxide in RPMI 1640) or with 100 μl of an appropriate dose of test compound before being stimulated by the addition of 100 μl of phytohemagglutinin HA17 (Murex, UK) at a final concentration of 2 μg/ml. After 48 hours, cell-free supernatant fluids were collected by centrifugation and stored at −70° C. until tested for the presence of IL-5.
# IL-5 measurements were conducted as described in Van Wauwe et al. (1996, Inflamm Res, 45, 357-363) on page 358 using ELISA.
# Table 9 lists the percentage inhibition of IL-5 production (column “% inh”) at a test dose of 1×10^−6 M, or in case the percentage inhibition is marked with an “*” 1×10^−5 M, the compounds of the present invention.
row,Structure (SMILES),% inh. (percentage inhibition of IL-5 production) [%]
1,O=c1cnn(-c2cc(Cl)c(C(c3ccc(Cl)cc3)c3cnc(-c4ccccc4)s3)c(Cl)c2)c(=O)[nH]1 (racemic) [Compound 142],80
2,O=c1cnn(-c2cc(Cl)c(C(Sc3nccc(N4CCOCC4)n3)c3ccc(Cl)cc3)c(Cl)c2)c(=O)[nH]1 (racemic) [Compound 349],87
3,O=c1cnn(-c2cc(Cl)c(C(Sc3ccncn3)c3ccc(Cl)cc3)c(Cl)c2)c(=O)[nH]1 (racemic) [Compound 409],88
4,CN(C)CCSC(c1ccc(Cl)cc1)c1ccc(-n2ncc(=O)[nH]c2=O)cc1Cl (racemic) [Compound 54],14
5,CN(C)CCNC(c1ccc(Cl)cc1)(c1nc(-c2ccccc2)c(Cl)s1)c1ccc(-n2ncc(=O)[nH]c2=O)cc1Cl (racemic) [Comp 266],46
6,O=c1cnn(-c2cc(Cl)c(C(c3ccc(Cl)cc3)c3nc(-c4cccc(F)c4)cs3)c(Cl)c2)c(=O)[nH]1 (racemic) [Comp 21],91
7,Cc1cccc(-c2nc(C(c3ccc(Cl)cc3)c3c(Cl)cc(-n4ncc(=O)[nH]c4=O)cc3Cl)cs2)c1 (racemic) [Compound 372],86
8,Cc1cccc(-c2csc(C(c3ccc(Cl)cc3)c3c(Cl)cc(-n4ncc(=O)[nH]c4=O)cc3Cl)n2)c1 (racemic) [Comp 22],93
9,O=c1cnn(-c2cc(Cl)c(C(c3ccc(Cl)cc3)c3nc(-c4ccccc4F)cs3)c(Cl)c2)c(=O)[nH]1 (racemic) [Comp 242],98
10,Nc1ccccc1-c1nnc(C(c2ccc(Cl)cc2)c2c(Cl)cc(-n3ncc(=O)[nH]c3=O)cc2Cl)o1 (racemic) [Compound 211],83
11,CN(C)Cc1nnc(C(c2ccc(Cl)cc2)c2c(Cl)cc(-n3ncc(=O)[nH]c3=O)cc2Cl)o1 (racemic) [Compound 198],46
12,O=c1cnn(-c2cc(Cl)c(C(c3ccncc3)c3ccc(Cl)cc3)c(Cl)c2)c(=O)[nH]1 (stereo not shown) [Comp 113],76
13,O=c1cnn(-c2cc(Cl)c(C(c3ccc(Cl)cc3)c3nc(-c4ccccc4)c(CN4CCOCC4)s3)c(Cl)c2)c(=O)[nH]1 (racemic) [Comp 292],94
14,O=c1cnn(-c2cc(Cl)c(C(Sc3nc(-c4ccccc4)no3)c3ccc(Cl)cc3)c(Cl)c2)c(=O)[nH]1 (racemic) [Compound 408],88
15,O=c1cnn(-c2cc(Cl)c(C(Nc3nc(-c4ccccc4)cs3)c3ccc(Cl)c(C(F)(F)F)c3)c(Cl)c2)c(=O)[nH]1 (racemic) [Compound 411],94
16,O=c1cnn(-c2cc(Cl)c(C(c3ccc(Cl)cc3)c3csc(-c4cccc(Cl)c4)n3)c(Cl)c2)c(=O)[nH]1 (racemic) [Compound 371],88
17,CN(CCc1ccccc1)Cc1sc(C(c2ccc(Cl)cc2)c2c(Cl)cc(-n3ncc(=O)[nH]c3=O)cc2Cl)nc1-c1ccccc1 (racemic) [Comp 332],86
18,O=c1cnn(-c2cc(Cl)c(C(c3ccc(Cl)cc3)c3nc(-c4ccccc4)c(C4CCCCC4)s3)c(Cl)c2)c(=O)[nH]1 (racemic) [Comp 284],91
19,O=c1cnn(-c2cc(Cl)c(C(c3ccc(Cl)cc3)c3nc(-c4ccco4)cs3)c(Cl)c2)c(=O)[nH]1 (racemic) [Comp 236],92
20,Cc1cc(C(C)(c2ccc(Cl)c(C(F)(F)F)c2)c2nc(-c3ccccc3)c(C)s2)c(Cl)cc1-n1ncc(=O)[nH]c1=O (racemic) [Comp 238],74

row,Structure (SMILES),% inh. (percentage inhibition of IL-5 production) [%]
1,Cc1nc(C(c2ccc(Cl)cc2)c2c(Cl)cc(-n3ncc(=O)[nH]c3=O)cc2Cl)sc1-c1ccccc1 (racemic) [Comp 248],91
2,O=c1cnn(-c2ccc(C(c3ccc(Cl)cc3)c3cnc(-c4ccccc4)s3)c(Cl)c2)c(=O)[nH]1 (racemic) [Compound 141],64
3,O=c1cnn(-c2cc(Cl)c(C(c3ccc(Cl)cc3)c3sc(-c4ccccc4Cl)nc3-c3ccccc3Cl)c(Cl)c2)c(=O)[nH]1 (racemic) [Compound 147],50
4,Cc1ccccc1-c1nnc(C(c2ccc(Cl)cc2)c2c(Cl)cc(-n3ncc(=O)[nH]c3=O)cc2Cl)o1 (racemic) [Compound 188],95
5,O=c1cnn(-c2ccc(C(Sc3ncnc4[nH]ncc34)c3ccc(Cl)cc3)c(Cl)c2)c(=O)[nH]1 (racemic) [Compound 74],69
6,CC(c1ccc(Cl)c(Cl)c1)(c1nc(-c2ccccc2)cs1)c1c(Cl)cc(-n2ncc(=O)[nH]c2=O)cc1Cl (racemic) [Comp 227],78
7,COCc1cc(O)nc(SC(c2ccc(Cl)cc2)c2ccc(-n3ncc(=O)[nH]c3=O)cc2Cl)n1 (racemic) [Compound 82],19
8,COc1cc(C(c2nc(-c3ccccc3)cs2)c2c(Cl)cc(-n3ncc(=O)[nH]c3=O)cc2Cl)ccc1Cl (racemic) [Comp 289],96
9,O.O=c1cnn(-c2ccc(C(Sc3nccc(O)n3)c3ccc(Cl)cc3)c(Cl)c2)c(=O)[nH]1 (racemic) [Compound 61],14
10,O=c1cnn(-c2cc(Cl)c(C(Sc3ncccn3)c3ccc(Cl)c(C(F)(F)F)c3)c(Cl)c2)c(=O)[nH]1 (racemic) [Compound 341],96
11,CCOC(=O)Cc1sc(C(c2ccc(Cl)cc2)c2c(Cl)cc(-n3ncc(=O)[nH]c3=O)cc2Cl)nc1-c1ccccc1 (racemic) [Comp 256],94
12,Cc1nc(-c2ccccc2)sc1C(c1ccc(Cl)cc1)c1c(Cl)cc(-n2ncc(=O)[nH]c2=O)cc1Cl (racemic) [Compound 138],81
13,O=c1cnn(-c2ccc(C(c3ccc(Cl)cc3)c3nc(-c4ccccc4)sc3-c3ccccc3)c(Cl)c2)c(=O)[nH]1 (racemic) [Compound 373],40
14,O=c1cnn(-c2cc(Cl)c(C(c3ccc(Cl)cc3)c3csc(-c4ccccc4F)n3)c(Cl)c2)c(=O)[nH]1 (racemic) [Compound 364],95
15,O=c1cnn(-c2cc(Cl)c(C(c3ccc(Cl)cc3)c3nnc(CCOc4ccccc4)o3)c(Cl)c2)c(=O)[nH]1 (racemic) [Compound 187],25
16,O=c1cnn(-c2cc(Cl)c(C(c3ccc(Cl)cc3)c3nc(-c4ccccc4Br)cs3)c(Cl)c2)c(=O)[nH]1 (racemic) [Comp 244],95
17,"O=c1cnn(-c2cc(Cl)c(C(c3ccc(Cl)cc3)c3nc(-c4cccc(F)c4)cs3)c(Cl)c2)c(=O)[nH]1 (single isomer, unassigned) [Comp 319]",84
18,O=c1cnn(-c2cc(Cl)c(C(SCc3cnccn3)c3ccc(Cl)cc3)c(Cl)c2)c(=O)[nH]1 (racemic) [Compound 407],71
19,CS(=O)(=O)c1cccc(-c2nnc(C(c3ccc(Cl)cc3)c3c(Cl)cc(-n4ncc(=O)[nH]c4=O)cc3Cl)o2)c1 (racemic) [Compound 205],80

# Same assay, conditions: test dose 1×10^−6 M, 48 hours, read-out: % inh. (percentage inhibition of IL-5 production)
row,Structure (SMILES),inhibition at 1 µM [%]
1,"CC(c1ccc(Cl)cc1)(c1nc2ccccc2o1)c1ccc(-n2ncc(=O)[nH]c2=O)cc1Cl (racemic) [Compound 132, (±)-2-[3-chloro-4-[1-(4-chlorophenyl)-1-(2-benzoxazolyl)ethyl]phenyl]-1,2,4-triazine-3,5(2H,4H)-dione]",55
2,"O=c1cnn(-c2ccc(C(Nc3ncccn3)c3ccc(Cl)cc3)c(Cl)c2)c(=O)[nH]1 (racemic) [Compound 49, (±)-2-[3-chloro-4-[(4-chlorophenyl)(2-pyrimidinylamino)methyl]phenyl]-1,2,4-triazine-3,5(2H,4H)-dione]",61
3,"O=c1cnn(-c2ccc(C(Sc3ccccn3)c3ccc(Cl)cc3)c(Cl)c2)c(=O)[nH]1 (racemic) [Compound 93, (±)-2-[3-chloro-4-[(4-chlorophenyl)(2-pyridinyl-thio)methyl]phenyl]-1,2,4-triazine-3,5(2H,4H)-dione]",86
4,"CCNC(CSC(c1ccc(Cl)cc1)c1ccc(-n2ncc(=O)[nH]c2=O)cc1Cl)C(=O)O (racemic) [Compound 95, (±)-ethyl α-[[[(4-chlorophenyl)[2-chloro-4-(4,5-dihydro-3,5-dioxo-1,2,4-triazin-2(3H)-yl)phenyl]methyl]thio]methyl]glycine]",17
